The values below come from patent publication US9453014B2, “Cyclic amide derivatives as inhibitors of 11-β-hydroxysteroid dehydrogenase and uses thereof” (CONNEXIOS LIFE SCIENCES PVT. LTD., priority 2011, dated 2016).

Some results are limits rather than exact numbers.

The target of the experiment is T1, human full length HSD11 β 1 (Homo sapiens, UniProt P28845).
T1 construct: transient expression of human full length HSD11 β 1 expression vector; host or cells: CHO cells (transient transfection)
T1 sequence (P28845 whole entry): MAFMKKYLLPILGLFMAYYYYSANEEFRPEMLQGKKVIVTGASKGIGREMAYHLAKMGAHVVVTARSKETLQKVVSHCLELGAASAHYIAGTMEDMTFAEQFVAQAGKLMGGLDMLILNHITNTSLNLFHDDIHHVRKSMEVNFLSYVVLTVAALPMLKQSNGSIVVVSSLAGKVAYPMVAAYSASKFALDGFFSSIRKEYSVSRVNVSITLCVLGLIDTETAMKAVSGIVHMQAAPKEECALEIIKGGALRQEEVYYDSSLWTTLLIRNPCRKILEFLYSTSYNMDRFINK
The experiment is described as follows: In Vitro HSD11β1 Inhibition Assay. As to conditions: CHO cells transiently expressing human HSD11β1; 200 nM cortisone+500 uM NADPH overnight; cortisone to cortisol by LC/MS-MS; read-out: 11βHSD1 (IC50). Type of experiment: cell-based. The essentials:
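CHO cells transiently transfected with human full-length HSD11β1 were re-seeded after 24 h and, 24 h later, incubated overnight with 200 nM cortisone plus 500 uM NADPH and inhibitor. Cortisone-to-cortisol conversion was measured by LC/MS-MS. IC50 from an 8-point log concentration–inhibition curve.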
In the case of `Cc1cccc2c1c(CCC(=O)N1CC(C)OC3CCCCC31)cn2C` (centres unmarked) [Compound 69, 3-(1,4-dimethyl-1H-indol-3-yl)-1-(2-methyloctahydro-4H-1,4-benzoxazin-4-yl)propan-1-one], the IC50 was greater than 250 nM.

Turning to `O=C(CCc1nc2ccccc2s1)N1CC2CCCCC2C1` (centres unmarked) [Example 82, 3-(1,3-benzothiazol-2-yl)-1-(octahydro-2H-isoindol-2-yl)propan-1-one], the IC50 is greater than 250 nM.

Consider `CC(CC(=O)N1CCCC2C(C(=O)O)CCCC21)c1c[nH]c2cccc(C3CC3)c12` (centres unmarked) [Compound 190, 1-[3-(4-cyclopropyl-1H-Indol-3-yl)butanoyl]decahydroquinoline-5-carboxylic acid], for which the IC50 is less than 100 nM.

Regarding `Cc1cccc2c1c(CCC(=O)N1CCO[C@@H]3CCCC[C@H]31)cn2C` (single isomer, unassigned) [Compound 62, 3-(1,4-dimethyl-1H-indol-3-yl)-1-[(trans-4a,8a)-octahydro-4H-1,4-benzoxazin-4-yl]propan-1-one], the IC50 was greater than 250 nM.

On to `CC(CC(=O)N1CCCC2CCCCC21)c1c[nH]c2ncccc12` (single isomer, unassigned) [Example 144, 1-(octahydroquinolin-1(2H)-yl)-3-(1H-pyrrolo[2,3-b]pyridin-3-yl)butan-1-one], for which the concentration for half-maximal inhibition (IC50) is greater than 250 nM.

For the compound `O=C(CCn1nnc2ccccc21)N1CCOC2CCCCC21` (centres unmarked) [Example 91, 3-(1H-benzotriazol-1-yl)-1-(octahydro-4H-1,4-benzoxazin-4-yl)propan-1-one], the IC50 is greater than 250 nM.

In the case of `O=C(CCc1cc2ccccc2[nH]1)N1CCCC2CCCCC21` (centres unmarked) [Compound 14, 3-(1H-indol-2-yl)-1-(octahydroquinolin-1(2H)-yl)propan-1-one], the IC50 was greater than 250 nM.

On to `O=C(O)C1CC2CCCCC2N(C(=O)CC(c2ccccc2)c2c[nH]c3cccc(F)c23)C1` (centres unmarked) [Example 176, 1-[3-(4-fluoro-1H-indol-3-yl)-3-phenylpropanoyl]decahydroquinoline-3-carboxylic acid], for which the IC50 is 150 to 200 nM.

Turning to `COc1cccc2[nH]cc(C(C)CC(=O)N3CCCC4C(C(=O)O)CCCC43)c12` (centres unmarked) [Compound 264, 1-[3-(4-methoxy-1H-indol-3-yl)butanoyl]decahydroquinoline-5-carboxylic acid], the IC50 is greater than 250 nM.

Regarding `CC(C)C(CC(=O)N1CCC(C(=O)O)C2CCCCC21)c1c[nH]c2cccc(F)c12` (centres unmarked) [Example 179, 1-[3-(4-fluoro-1H-Indol-3-yl)-4-methylpentanoyl]decahydroquinoline-4-carboxylic acid], the 50% inhibitory concentration (IC50) was greater than 250 nM.

Regarding `CC(CC(=O)N1CCCC2CC(C(=O)O)CCC21)c1c[nH]c2cccc(Cl)c12` (centres unmarked) [Compound 228, 1-[3-(4-chloro-1H-indol-3-yl)butanoyl]decahydroquinoline-6-carboxylic acid], the concentration for half-maximal inhibition (IC50) was greater than 250 nM.

With `Cn1cc(C2CC2C(=O)N2CCCC3CCCCC32)c2ccccc21` (centres unmarked) [Example 97, [2-(1-methyl-1H-indol-3-yl)cyclopropyl](octahydroquinolin-1(2H)-yl)methanone], the 50% inhibitory concentration (IC50) fell in the range of 150 to 200 nM.

Turning to `O=C(O)C1CCN(C(=O)CC(c2ccccc2)c2nc3ccccc3s2)C2CCCCC12` (centres unmarked) [Example 152, 1-[3-(1,3-benzothiazol-2-yl)-3-phenylpropanoyl]decahydroquinoline-4-carboxylic acid], the half-inhibitory concentration (IC50) was greater than 250 nM.

For `CC(CC(=O)N1C(C)CCC2C(C(=O)O)CCCC21)c1c[nH]c2cccc(-c3cccs3)c12` (centres unmarked) [Compound 232, 2-methyl-1-{3-[4-(thiophen-2-yl)-1H-indol-3-yl]butanoyl}decahydroquinoline-5-carboxylic acid], the IC50 was in the range of 150 to 200 nM.

On to `CC(CC(=O)N1CCC(O)C2CCCCC21)c1c[nH]c2ccccc12` (centres unmarked) [Example 106, 1-(4-hydroxyoctahydroquinolin-1(2H)-yl)-3-(1H-indol-3-yl)butan-1-one], for which the IC50 was greater than 250 nM.

In the case of `O=C(O)C1CCN(C(=O)CC(c2ccccc2)c2c[nH]c3cccc(Cl)c23)C2CCCCC12` (centres unmarked) [Example 155, 1-[3-(4-chloro-1H-indol-3-yl)-3-phenylpropanoyl]decahydroquinoline-4-carboxylic acid], the IC50 is greater than 250 nM.

With `CC1CCC2CCCCC2N1C(=O)CCc1c[nH]c2cc(F)ccc12` (centres unmarked) [Compound 40, 3-(6-fluoro-1H-indol-3-yl)-1-(2-methyloctahydroquinolin-1(2H)-yl)propan-1-one], the IC50 is greater than 250 nM.

In the case of `CC(CC(=O)N1CCCC2C(C(=O)O)CCCC21)c1c[nH]c2cccc(-c3ccc(F)o3)c12` (centres unmarked) [Compound 245, 1-{3-[4-(5-fluorofuran-2-yl)-1H-indol-3-yl]butanoyl}decahydroquinoline-5-carboxylic acid], the IC50 was less than 100 nM.

In the case of `N#C/C(=C\c1c[nH]c2ccccc12)C(=O)N1CCCC2CCCCC21` (centres unmarked) [Compound 31, (2E)-3-(1H-indol-3-yl)-2-(octahydroquinolin-1(2H)-ylcarbonyl)prop-2-enenitrile], the IC50 was greater than 250 nM.

Turning to `CC(Oc1cn(C)c2ccccc12)C(=O)N1CCCC2CCCCC21` (centres unmarked) [Example 100, 2-[(1-methyl-1H-indol-3-yl)oxy]-1-(octahydroquinolin-1(2H)-yl)propan-1-one], the 50% inhibitory concentration (IC50) is greater than 250 nM.

With `CC(C)C(CC(=O)N1CCC(C(=O)O)C2CCCCC21)c1c[nH]c2cc(F)ccc12` (single isomer, unassigned) [Example 178, 1-[3-(6-fluoro-1H-indol-3-yl)-4-methylpentanoyl]decahydroquinoline-4-carboxylic acid], the IC50 was greater than 250 nM.

Regarding `O=C(CCc1c[nH]c2ccc(Cl)cc12)N1CCCC2CCCCC21` (centres unmarked) [Compound 6, 3-(5-chloro-1H-indol-3-yl)-1-(octahydroquinolin-1(2H)-yl)propan-1-one], the 50% inhibitory concentration (IC50) was 200 to 250 nM.

Turning to `CC(CC(=O)N1CCCC2(CO)CCCCC12)c1c[nH]c2nccc(Cl)c12` (centres unmarked) [Example 147, 3-(4-chloro-1H-pyrrolo[2,3-b]pyridin-3-yl)-1-[4a-(hydroxymethyl)octahydroquinolin-1(2H)-yl]butan-1-one], the IC50 is greater than 250 nM.

`CC(CC(=O)N1CCC(C(=O)O)C2CCCCC21)c1c[nH]c2ncccc12` (centres unmarked) [Example 165, 1-[3-(1H-pyrrolo[2,3-b]pyridin-3-yl)butanoyl]decahydroquinoline-4-carboxylic acid]: the half-maximal inhibitory concentration (IC50) is greater than 250 nM.

For the compound `CC1CCC2CCCCC2N1C(=O)CCc1c[nH]c2ccccc12` (centres unmarked) [Compound 38, 3-(1H-indol-3-yl)-1-(2-methyloctahydroquinolin-1(2H)-yl)propan-1-one], the IC50 was 150 to 200 nM.

Regarding `CC(CC(=O)N1CCCC2C(C(=O)O)CCCC21)c1c[nH]c2cccc(-c3cccc(F)c3)c12` (centres unmarked) [Compound 259, 1-{3-[4-(3-fluorophenyl)-1H-indol-3-yl]butanoyl}decahydroquinoline-5-carboxylic acid], the IC50 is 150 to 200 nM.

Take `CCOC(=O)C12CCCCC1N(C(=O)CC(C)c1nc3ccccc3s1)CCC2` (centres unmarked) [Example 141, ethyl 1-[3-(1,3-benzothiazol-2-yl)butanoyl]octahydroquinoline-4a(2H)-carboxylate]: the IC50 was greater than 250 nM.

Consider `Cn1cc(C(C)(C)C(=O)N2CCCC3CCCCC32)c2ccccc21` (centres unmarked) [Compound 2, 2-methyl-2-(1-methyl-1H-indol-3-yl)-1-(octahydroquinolin-1(2H)-yl)propan-1-one], for which the half-maximal inhibitory concentration (IC50) was greater than 250 nM.

`CC(CC(=O)N1CCCC2C(C(=O)NCC(=O)O)CCCC21)c1c[nH]c2cccc(C3CC3)c12` (centres unmarked) [Compound 247, N-({1-[3-(4-cyclopropyl-1H-indol-3-yl)butanoyl]decahydroquinolin-5-yl}carbonyl)glycine]: the IC50 is greater than 250 nM.

For the compound `O=C(CCc1c[nH]c2ccc(F)cc12)N1CCCC2CCCCC21` (centres unmarked) [Compound 4, 3-(5-fluoro-1H-indol-3-yl)-1-(octahydroquinolin-1(2H)-yl)propan-1-one], the 50% inhibitory concentration (IC50) lay in the range of 100 to 150 nM.

For `CC(C(=O)N1CCCC2C(C(=O)O)CCCC21)c1c[nH]c2cccc(C3CC3)c12` (centres unmarked) [Compound 267, 1-(2-(4-cyclopropyl-1H-indol-3-yl)propanoyl)decahydroquinoline-5-carboxylic acid], the 50% inhibitory concentration (IC50) was greater than 250 nM.

Consider `CC(C)C(CC(=O)N1CCOC2CCCCC21)c1c[nH]c2ccccc12` (centres unmarked) [Example 133, 3-(1H-indol-3-yl)-4-methyl-1-(octahydro-4H-1,4-benzoxazin-4-yl)pentan-1-one], for which the IC50 is greater than 250 nM.

Regarding `CC(CC(=O)N1CCCC2C(C(=O)O)CCCC21)c1c[nH]c2cccc(-c3ccccn3)c12` (centres unmarked) [Compound 238, 1-{3-[4-(pyridin-2-yl)-1H-Indol-3-yl]butanoyl}decahydroquinoline-5-carboxylic acid], the 50% inhibitory concentration (IC50) is greater than 250 nM.

On to `O=C(CCc1c[nH]c2ccccc12)N1CCCC2CCCCC21` (centres unmarked) [Example 93, 3-(1H-indol-3-yl)-1-(octahydroquinolin-1(2H)-yl)propan-1-one], for which the half-inhibitory concentration (IC50) is less than 100 nM.

As for `CC(CC(=O)N1CCC(=O)C2CCCCC21)c1c[nH]c2ccccc12` (centres unmarked) [Example 103, 1-[3-(1H-indol-3-yl)butanoyl]octahydroquinolin-4(1H)-one], the concentration for half-maximal inhibition (IC50) was greater than 250 nM.

`CC(CC(=O)N1CCCC2C(C(=O)O)CCCC21)c1c[nH]c2cccc(-c3ccco3)c12` (centres unmarked) [Compound 215, 1-{3-[4-(furan-2-yl)-1H-indol-3-yl]butanoyl}decahydroquinoline-5-carboxylic acid]: the IC50 is less than 100 nM.

For `CC(CC(=O)N1CCOC2CCCCC21)c1c[nH]c2cccc(F)c12` (single isomer, unassigned) [Example 137, 3-(4-fluoro-1H-indol-3-yl)-1-(octahydro-4H-1,4-benzoxazin-4-yl)butan-1-one], the IC50 was in the range of 100 to 150 nM.

With `CC(CC(=O)N1CCCC2CCCCC21)c1c[nH]c2ccccc12` (single isomer, unassigned) [Example 120, 3-(1H-indol-3-yl)-1-(octahydroquinolin-1(2H)-yl)butan-1-one], the IC50 was less than 100 nM.
